Measured values reported in US7884083B2, “Immunomodulatory compositions, methods of making, and methods of use thereof” (Dynavax Technologies Corporation, priority 2002, dated 2011).

How the values were obtained:
[1] = tested on: human peripheral blood lymphocytes (PBMCs); experiment: hPBMC assay: IFN-γ and IFN-α production by human PBMCs (ELISA); assay type: cell-based; details: 20 μg/ml oligonucleotide
K562 cells = experiment: NK cell lytic activity of stimulated PBMCs against 51Cr-loaded K562 cells; assay type: cell-based, human; details: 10 μg/mL IMC, 100 μg/mL PMXB, 48 hours
Procedure: IMC particulate formulations were tested for NK cell stimulatory activity. PBMCs from two donors were stimulated for 48 hours with 10 μg/mL IMC (“+ISS”) 5′-[…]-3′ (SEQ ID NO:1) with or without 100 μg/mL PMXB. The PBMCs were then assayed for lytic activity against K562 cells loaded with ^51Cr as target cells. For controls, K562 cells were cultured alone, K562 cells were lysed with Triton and K562 cells were stimulated with untreated PBMC cells. Determination of ^51CR released into culture media was used to measure the extent of target cell lysis. The presence of PMXB increased the NK cell lytic activity stimulated by the IMC alone.

[2] = tested on: plasmacytoind dendritic cells (PDCs) of human PBMCs; experiment: Intracellular staining and FACS analysis of IFN-α production from PDCs; assay type: cell-based; details: double-staining cells as percentage of total PBMCs, 20 μg/mL oligonucleotide, 100 μg/mL PMXB, six hours
Procedure: Intracellular staining assays and FACS analysis were used to examine IFN-α production from the plasmacytoind dendritic cells (PDCs) of human PBMCs. […] For these assays, the IMC or -ISS and the polymyxin were added separately to the PBMC cell culture which contained human serum albumin. […] After the six hours, the cells were stained with a fluorescently labeled PDC marker, anti-BCDA-2 labeled with FITC, and with anti-IFN-α labeled with PE. FACS analysis of the labeled cells was performed.

mouse lung cells = experiment: Gene modulation in mouse lung after intranasal instillation (TAQMAN, relative cycle thresholds; Table 18); assay type: in vivo; parameters: Relative Cycle Thresholds (CTs), IFN-α2 / Relative Cycle Thresholds (CTs), BCA-1 / Relative Cycle Thresholds (CTs), IP-10 / Relative Cycle Thresholds (CTs), MIP-1b / Relative Cycle Thresholds (CTs), 12/15-lipoxg: reference not given here; details: 6 hours after intranasal instillation
Procedure: Modulation of a variety of genes in response to immunomodulatory formulations was measured in mouse lung cells.
Particulate formulations were produced by first preparing either a 1 mg/mL +ISS, 0.4% TWEEN® 85, 0.4% oleate solution or a 20 mg/mL HSA solution, then making that solution 5 mg/ml in PMXB. The formulations were allowed to stand for 24 hours at room temperature, then dialyzed using a 10 kDa membrane. Particulate formulations and +ISS alone (50 μL dose) were administered by intranasal instillation to lightly anesthetized mice (5 mice per group). Animals were sacrificed 6 hours after administration, lung tissue was surgically removed, and cell suspensions were made by homogenization of the lung tissue. cDNA was synthesized from RNA isolated from the cell suspensions, and RNA was quantitated using TAQMAN® Technology. The particulate formulations induced significant increases in the majority of the genes tested.

[3] = Table 9, donor 208, 100 μg/ml polymyxin
[4] = Table 10, donor 1, 100 μg/ml polymyxin derivative added separately, 24 hours
[5] = Table 10, donor 2, 100 μg/ml polymyxin derivative added separately, 24 hours
[6] = Table 10, donor 3, 100 μg/ml polymyxin derivative added separately, 24 hours
[7] = Table 10, donor 4, 100 μg/ml polymyxin derivative added separately, 24 hours
[8] = Table 10, donor 5, 100 μg/ml polymyxin derivative added separately, 24 hours
[9] = Table 10, donor 6, 100 μg/ml polymyxin derivative added separately, 24 hours
[10] = Table 10, mean of 6 donors, 100 μg/ml polymyxin derivative added separately, 24 hours
[11] = Effector:Target ratio 12.5:1, donor 2

5′-TGACTGTGAACGTTCGAGATGA-3′ [+ISS]
IFN-Υ [1, 3]: 146 pg/mL | IFN-α [1, 3]: 32 pg/mL | IFN-α ([1]; Table 9, donor 209, 100 μg/ml polymyxin): 32 pg/mL | IFN-α [1, 4]: 263 pg/mL | IFN-γ [1, 4]: 13 pg/mL | IFN-α [1, 5]: 225 pg/mL | IFN-γ [1, 5]: 3 pg/mL | IFN-α [1, 6]: 52 pg/mL | IFN-γ [1, 6]: 2 pg/mL | IFN-α [1, 7]: 52 pg/mL | IFN-γ [1, 7]: 2 pg/mL | IFN-α [1, 8]: 218 pg/mL | IFN-γ [1, 8]: 99 pg/mL | IFN-α [1, 9]: 26 pg/mL | IFN-γ [1, 9]: 14 pg/mL | IFN-α [1, 10]: 139 pg/mL | IFN-γ [1, 10]: 22 pg/mL | 51Cr released from K562 target cells, cpm1 (K562 cells; Effector:Target ratio 6:1, donor 1): 6935 cpm | 51Cr released from K562 target cells, cpm2 (K562 cells; [11]): 8370 cpm | 51Cr released from K562 target cells, mean (K562 cells; [11]): 8162 cpm | 51Cr released from K562 target cells, cpm3 (K562 cells; Effector:Target ratio 25:1, donor 1): 8048 cpm | BCDA-2/IFN-α d.p. % ([2]; donor 1): 0.01% | BCDA-2/IFN-α d.p. % ([2]; donor 2): 0.03% | BCDA-2/IFN-α d.p. % ([2]; mean): 0.02% | Relative Cycle Thresholds (CTs), 12/15-lipoxg (mouse lung cells; gene 12/15-lipoxg): 65 | Relative Cycle Thresholds (CTs), BCA-1 (mouse lung cells; gene BCA-1): 5026 | Relative Cycle Thresholds (CTs), CD80 (mouse lung cells; gene CD80): 205 | Relative Cycle Thresholds (CTs), CD86 (mouse lung cells; gene CD86): 103 | Relative Cycle Thresholds (CTs), COX-1 (mouse lung cells; gene COX-1): 2145 | Relative Cycle Thresholds (CTs), COX-2 (mouse lung cells; gene COX-2): 446 | Relative Cycle Thresholds (CTs), Eotaxin (mouse lung cells; gene Eotaxin): 273 | Relative Cycle Thresholds (CTs), G-CSF (mouse lung cells; gene G-CSF): 92 | Relative Cycle Thresholds (CTs), IFN-α2 (mouse lung cells; gene IFN-α2): 3 | Relative Cycle Thresholds (CTs), IFN-γ (mouse lung cells; gene IFN-γ): 25 | Relative Cycle Thresholds (CTs), IL-1a (mouse lung cells; gene IL-1a): 7523 | Relative Cycle Thresholds (CTs), IL-1b (mouse lung cells; gene IL-1b): 1643 | Relative Cycle Thresholds (CTs), IL-6 (mouse lung cells; gene IL-6): 755 | Relative Cycle Thresholds (CTs), IL-10 (mouse lung cells; gene IL-10): 4 | Relative Cycle Thresholds (CTs), IL-12p40 (mouse lung cells; gene IL-12p40): 6 | Relative Cycle Thresholds (CTs), IL-23 (mouse lung cells; gene IL-23): 266 | Relative Cycle Thresholds (CTs), IP-10 (mouse lung cells; gene IP-10): 23436 | Relative Cycle Thresholds (CTs), LPTN (mouse lung cells; gene LPTN): 976 | Relative Cycle Thresholds (CTs), MCP-1 (mouse lung cells; gene MCP-1): 5265 | Relative Cycle Thresholds (CTs), MCP-3 (mouse lung cells; gene MCP-3): 3905 | Relative Cycle Thresholds (CTs), MDC (mouse lung cells; gene MDC): 2869 | Relative Cycle Thresholds (CTs), MIG (mouse lung cells; gene MIG): 3411 | Relative Cycle Thresholds (CTs), MIP-1a (mouse lung cells; gene MIP-1a): 6156 | Relative Cycle Thresholds (CTs), MIP-1b (mouse lung cells; gene MIP-1b): 12918 | Relative Cycle Thresholds (CTs), MIP-2 (mouse lung cells; gene MIP-2): 1792 | Relative Cycle Thresholds (CTs), MIP-3a (mouse lung cells; gene MIP-3a): 885 | Relative Cycle Thresholds (CTs), MIP-3b (mouse lung cells; gene MIP-3b): 2030 | Relative Cycle Thresholds (CTs), MMP-8 (mouse lung cells; gene MMP-8): 1505 | Relative Cycle Thresholds (CTs), NOS2 (mouse lung cells; gene NOS2): 308 | Relative Cycle Thresholds (CTs), TARC (mouse lung cells; gene TARC): 1505 | Relative Cycle Thresholds (CTs), TCA-3 (mouse lung cells; gene TCA-3): 16 | Relative Cycle Thresholds (CTs), TNF-α (mouse lung cells; gene TNF-α): 7170
